Results from ChEMBL document CHEMBL3045294, “Synthesis, anticonvulsant and toxicity screening of thiazolylthiadiazole derivatives” (Med Chem Res, 2011).
Calls of active or inactive are those of the source. The rule behind the calls is not given here.

What was measured:
Mus musculus [1] = assay: (§1) Neurotoxicity in ip dosed Mus musculus albino (mouse) after 4 hr rotorod test; type: toxicity, organism-based; conditions: in vivo, 4 h
Mus musculus [2] = assay: Anticonvulsant activity in ip dosed Mus musculus albino (mouse) assessed as protection against subcutaneous pentylenetetrazol-induced seizures after 4 hr; type: functional; conditions: read-out: MED
Mus musculus [3] = assay: Anticonvulsant activity in Mus musculus albino (mouse) assessed as protection against subcutaneous pentylenetetrazol-induced seizures at 300 mg/kg, ip after 0.5 hr; type: functional, organism-based; parameters: dose 300 mg/kg
Mus musculus [4] = assay: Anticonvulsant activity in ip dosed Mus musculus albino (mouse) assessed as protection against maximal electroshock-induced seizures after 0.5 hr; type: functional; conditions: read-out: MED
Mus musculus [5] = assay: (§2) Neurotoxicity in ip dosed Mus musculus albino (mouse) after 0.5 hr rotorod test; type: toxicity, organism-based; conditions: in vivo, 0.5 h
Mus musculus [6] = assay: Anticonvulsant activity in Mus musculus albino (mouse) assessed as protection against maximal electroshock-induced seizures at 300 mg/kg, ip after 4 hr; type: functional, organism-based; parameters: dose 300 mg/kg
[7] = as §1; type: toxicity, organism-based; conditions: albino, in vivo
Mus musculus [8] = assay: Anticonvulsant activity in ip dosed Mus musculus albino (mouse) assessed as protection against maximal electroshock-induced seizures after 4 hr; type: functional; conditions: read-out: MED
Mus musculus [9] = assay: Anticonvulsant activity in Mus musculus albino (mouse) assessed as protection against subcutaneous pentylenetetrazol-induced seizures at 300 mg/kg, ip after 4 hr; type: functional, organism-based; parameters: dose 300 mg/kg
[10] = as §2; type: toxicity, organism-based; conditions: albino, in vivo
Mus musculus [11] = assay: Anticonvulsant activity in ip dosed Mus musculus albino (mouse) assessed as protection against subcutaneous pentylenetetrazol-induced seizures after 0.5 hr; type: functional; conditions: read-out: MED
Mus musculus [12] = assay: Anticonvulsant activity in ip dosed Mus musculus albino (mouse) assessed as protection against subcutaneous pentylenetetrazol-induced seizures; type: functional
Mus musculus [13] = assay: Anticonvulsant activity in Mus musculus albino (mouse) assessed as protection against maximal electroshock-induced seizures at 300 mg/kg, ip after 0.5 hr; type: functional, organism-based; parameters: dose 300 mg/kg
Mus musculus [14] = assay: Anticonvulsant activity in ip dosed Mus musculus albino (mouse) assessed as protection against maximal electroshock-induced seizures; type: functional
Mus musculus [15] = species: Mus musculus; assay: Protective index, ratio of TD50 for Mus musculus albino (mouse) to ED50 for Mus musculus albino (mouse) by maximal electroshock-induced seizures test; type: functional
Mus musculus [16] = assay: Protective index, ratio of TD50 for Mus musculus albino (mouse) to ED50 for Mus musculus albino (mouse) by subcutaneous pentylenetetrazol-induced seizures test; type: functional
Mus musculus [17] = assay: Hepatoxicity in Mus musculus albino (mouse) assessed as effect on alkaline phosphatase level in serum at 3 to 30 mg/kg, ip; type: toxicity, organism-based; parameters: dose 3-30 mg/kg, route intraperitoneal; conditions: in vivo
Mus musculus [18] = assay: Hepatoxicity in Mus musculus albino (mouse) assessed as effect on SGPT level in serum at 3 to 30 mg/kg, ip; type: toxicity, organism-based; parameters: dose 3-30 mg/kg, route intraperitoneal; conditions: in vivo
Mus musculus [19] = assay: Hepatoxicity in Mus musculus albino (mouse) assessed as effect on SGOT level in serum at 3 to 30 mg/kg, ip; type: toxicity, organism-based; parameters: dose 3-30 mg/kg, route intraperitoneal; conditions: in vivo

SMILES	MTC (Mus musculus [1])	minimal effective dose (Mus musculus [2])	Activity (Mus musculus [3])	minimal effective dose (Mus musculus [4])	MTC (Mus musculus [5])	MTD at 4 h [7]	minimal effective dose (Mus musculus [8])	Activity (Mus musculus [9])	MTD at 0.5 h [10]	further results
COc1ccccc1Nc1nnc(Nc2nc(-c3ccc(Br)cc3)cs2)s1	100 mg/kg	300 mg/kg	inactive	300 mg/kg	300 mg/kg					Activity (Mus musculus [6]): inactive
COc1ccccc1Nc1nnc(Nc2nc(-c3ccc([N+](=O)[O-])cc3)cs2)s1		300 mg/kg	inactive	300 mg/kg	300 mg/kg	300 mg/kg	300 mg/kg			
O=[N+]([O-])c1ccc(-c2csc(Nc3nnc(Nc4ccccc4)s3)n2)cc1			inactive	100 mg/kg	100 mg/kg	300 mg/kg		inactive		Activity (Mus musculus [6]): inactive
COc1ccccc1Nc1nnc(Nc2nc(-c3ccccc3)cs2)s1		300 mg/kg		100 mg/kg		300 mg/kg	300 mg/kg		300 mg/kg	minimal effective dose (Mus musculus [11]): 100 mg/kg
Cc1ccccc1Nc1nnc(Nc2nc(-c3ccc(Br)cc3)cs2)s1		300 mg/kg	inactive	300 mg/kg	100 mg/kg	300 mg/kg	300 mg/kg			
Brc1ccc(-c2csc(Nc3nnc(Nc4ccccc4)s3)n2)cc1	300 mg/kg		inactive	300 mg/kg	300 mg/kg			inactive		Activity (Mus musculus [6]): inactive
CCCC(CCC)C(=O)O [VALPROIC ACID]										ED50 (Mus musculus [12]): 149 mg/kg
O=C1NC(=O)C(c2ccccc2)(c2ccccc2)N1 [PHENYTOIN]	100 mg/kg		inactive	30 mg/kg	100 mg/kg		30 mg/kg	inactive		ED50 (Mus musculus [12]): > 300 mg/kg
COc1ccc(Nc2nnc(Nc3nc(-c4ccc(Cl)cc4)cs3)s2)cc1		300 mg/kg		100 mg/kg		300 mg/kg	300 mg/kg		300 mg/kg	minimal effective dose (Mus musculus [11]): 100 mg/kg
Cc1ccccc1Nc1nnc(Nc2nc(-c3ccccc3)cs2)s1	300 mg/kg		inactive	300 mg/kg				inactive	300 mg/kg	Activity (Mus musculus [6]): inactive
Cc1ccc(Nc2nnc(Nc3nc(-c4ccc(Cl)cc4)cs3)s2)cc1		300 mg/kg	inactive	300 mg/kg		300 mg/kg	100 mg/kg		300 mg/kg	
Cc1ccccc1Nc1nnc(Nc2nc(-c3ccc([N+](=O)[O-])cc3)cs2)s1	300 mg/kg	300 mg/kg	inactive	100 mg/kg	100 mg/kg		100 mg/kg			
COc1ccccc1Nc1nnc(Nc2nc(-c3ccc(Cl)cc3)cs2)s1	300 mg/kg	100 mg/kg	inactive		300 mg/kg		300 mg/kg			Activity (Mus musculus [13]): inactive
Cc1ccc(Nc2nnc(Nc3nc(-c4ccccc4)cs3)s2)cc1				100 mg/kg		300 mg/kg	100 mg/kg	inactive	300 mg/kg	minimal effective dose (Mus musculus [11]): 300 mg/kg
Cc1ccc(Nc2nnc(Nc3nc(-c4ccc([N+](=O)[O-])cc4)cs3)s2)cc1				30 mg/kg		300 mg/kg	100 mg/kg	inactive	300 mg/kg	ED50 (Mus musculus [14]): 19.1 mg/kg; Ratio TD50/ED50 (Mus musculus [15]): 11.3; Ratio TD50/ED50 (Mus musculus [16]): 0.9; Activity (Mus musculus [17]): Toxic; TD50 at 0.5 h [10]: 216 mg/kg; ED50 (Mus musculus [12]): 232 mg/kg; Activity (Mus musculus [18]): Toxic; Activity (Mus musculus [19]): Toxic; minimal effective dose (Mus musculus [11]): 300 mg/kg
Clc1ccc(-c2csc(Nc3nnc(Nc4ccccc4)s3)n2)cc1			inactive			300 mg/kg	300 mg/kg	inactive	300 mg/kg	Activity (Mus musculus [13]): inactive
Cc1ccc(Nc2nnc(Nc3nc(-c4ccc(Br)cc4)cs3)s2)cc1	300 mg/kg	300 mg/kg		100 mg/kg	300 mg/kg		100 mg/kg			minimal effective dose (Mus musculus [11]): 300 mg/kg
c1ccc(Nc2nnc(Nc3nc(-c4ccccc4)cs3)s2)cc1	300 mg/kg	100 mg/kg	inactive	300 mg/kg					300 mg/kg	Activity (Mus musculus [6]): inactive
CCC1(c2ccccc2)C(=O)NC(=O)NC1=O [PHENOBARBITAL]	300 mg/kg		inactive	100 mg/kg	100 mg/kg		30 mg/kg	inactive		ED50 (Mus musculus [14]): 21.8 mg/kg; ED50 (Mus musculus [12]): 13.2 mg/kg
COc1ccc(Nc2nnc(Nc3nc(-c4ccc([N+](=O)[O-])cc4)cs3)s2)cc1		100 mg/kg	inactive	30 mg/kg		300 mg/kg	30 mg/kg		300 mg/kg	ED50 (Mus musculus [14]): 12.6 mg/kg; Ratio TD50/ED50 (Mus musculus [15]): 43.6; Ratio TD50/ED50 (Mus musculus [16]): 1.2; Activity (Mus musculus [17]): Toxic; TD50 at 0.5 h [10]: 550 mg/kg; ED50 (Mus musculus [12]): 433 mg/kg; Activity (Mus musculus [18]): Toxic; Activity (Mus musculus [19]): Toxic
CCC1(C)CC(=O)NC1=O (configuration not stated) [ETHOSUXIMIDE]		300 mg/kg				300 mg/kg			300 mg/kg	ED50 (Mus musculus [14]): 8.8 mg/kg; Ratio TD50/ED50 (Mus musculus [15]): 8.1; Ratio TD50/ED50 (Mus musculus [16]): <0.2; Activity (Mus musculus [13]): inactive; TD50 at 0.5 h [10]: 71.6 mg/kg; ED50 (Mus musculus [12]): > 100 mg/kg; Activity (Mus musculus [6]): inactive; minimal effective dose (Mus musculus [11]): 100 mg/kg
COc1ccc(Nc2nnc(Nc3nc(-c4ccccc4)cs3)s2)cc1		300 mg/kg	inactive	100 mg/kg	300 mg/kg	300 mg/kg	100 mg/kg			
Cc1ccccc1Nc1nnc(Nc2nc(-c3ccc(Cl)cc3)cs2)s1			inactive	300 mg/kg		300 mg/kg	300 mg/kg	inactive	300 mg/kg	
